Results taken from patent US11247947B2, “Method of high-pressure purification of [f-18]FEONM” (Institute of Nuclear Energy Research, Atomic Energy …, priority 2019, dated 2022).

Columns and labels:
[1] = shake-flask lipophilicity (Log P) detection; assay type: physicochemical; details: for Log P: shake-flask gold standard detection
Source text: Besides, the present invention further designs a novel naphthol analogue, [F-18]FEONM, with lipophilicity increased. This is consistent with the concept of the structure design for the present invention. By adding a —C2H4O— functional group to a F-18 end, the lipophilicity of [F-18]FEONM is increased to obtain a potential novel brain imaging agent. The present invention develops the high-pressure isolation and purification to achieve the purpose of purification of [F-18]FEONM without toxic compounds.

[2] = tested on: P301S/PS19 transgenic mice; assay: brain uptake biodistribution of [F-18]FEONM in P301S/PS19 transgenic mice; assay type: in vivo; details: 12~13 month-old P301S/PS19 transgenic mice; product purified through an alumina solid-phase extraction column; FIG. 2

SMILES | Log P [1] | lipophilicity compared with [F-18]FDDNP ([1]; same shake-flask gold standard detection) | brain uptake biodistribution ratios (result in words) [2]
CC(=C(C#N)C#N)c1ccc2cc(N(C)CC[18F])ccc2c1 [[F-18]FDDNP, reference compound] | 1.93 ± 0.10 |  | 
CC(=C(C#N)C#N)c1ccc2cc(N(C)CCOCCF)ccc2c1 [[F-18]FEONM] | 2.20 ± 0.17 | higher than [F-18]FDDNP | effective to Alzheimer disease stages
